Test results taken from publication PMC6028563, “Probing Substituents in the 1- and 3-Position: Tetrahydropyrazino-Annelated Water-Soluble Xanthine Derivatives as Multi-Target Drugs With Potent Adenosine Receptor Antagonistic Activity” (Frontiers in Chemistry, 2018).
Where two headings read alike, the source gives them in different places.

Assays:
recombinant human MAO-B [1] = target: T1, recombinant human MAO-B (Homo sapiens, UniProt P27338); settings: human (h); Figure 1; ref Petzer et al., 2009; Müller and Jacobson, 2011; Brunschweiger et al., 2014; cited from earlier work
T1 construct: purchased Sigma-Aldrich M7441; host or cells: baculovirus-infected insect cells
T1 sequence (P27338 1-520): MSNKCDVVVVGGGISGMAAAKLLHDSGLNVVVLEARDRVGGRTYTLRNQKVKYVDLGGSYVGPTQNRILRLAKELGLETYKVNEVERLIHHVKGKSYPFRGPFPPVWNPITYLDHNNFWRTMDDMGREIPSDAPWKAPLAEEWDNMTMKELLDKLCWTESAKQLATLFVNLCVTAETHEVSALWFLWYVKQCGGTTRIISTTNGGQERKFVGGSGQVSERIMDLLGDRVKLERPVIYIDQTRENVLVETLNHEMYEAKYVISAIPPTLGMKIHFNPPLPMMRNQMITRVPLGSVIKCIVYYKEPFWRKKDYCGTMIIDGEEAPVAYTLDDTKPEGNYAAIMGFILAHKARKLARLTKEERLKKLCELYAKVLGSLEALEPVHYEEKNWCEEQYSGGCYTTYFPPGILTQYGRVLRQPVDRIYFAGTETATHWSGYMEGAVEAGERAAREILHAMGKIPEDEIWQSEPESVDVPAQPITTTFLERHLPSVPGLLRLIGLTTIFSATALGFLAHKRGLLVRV

recombinant human MAO-A [2] = target: T2, recombinant human MAO-A (Homo sapiens, UniProt P21397); settings: human (h); Figure 1; ref Petzer et al., 2009; Müller and Jacobson, 2011; Brunschweiger et al., 2014; cited from earlier work
T2 construct: purchased Sigma-Aldrich M7316; host or cells: baculovirus-infected insect cells
T2 sequence (P21397 1-527): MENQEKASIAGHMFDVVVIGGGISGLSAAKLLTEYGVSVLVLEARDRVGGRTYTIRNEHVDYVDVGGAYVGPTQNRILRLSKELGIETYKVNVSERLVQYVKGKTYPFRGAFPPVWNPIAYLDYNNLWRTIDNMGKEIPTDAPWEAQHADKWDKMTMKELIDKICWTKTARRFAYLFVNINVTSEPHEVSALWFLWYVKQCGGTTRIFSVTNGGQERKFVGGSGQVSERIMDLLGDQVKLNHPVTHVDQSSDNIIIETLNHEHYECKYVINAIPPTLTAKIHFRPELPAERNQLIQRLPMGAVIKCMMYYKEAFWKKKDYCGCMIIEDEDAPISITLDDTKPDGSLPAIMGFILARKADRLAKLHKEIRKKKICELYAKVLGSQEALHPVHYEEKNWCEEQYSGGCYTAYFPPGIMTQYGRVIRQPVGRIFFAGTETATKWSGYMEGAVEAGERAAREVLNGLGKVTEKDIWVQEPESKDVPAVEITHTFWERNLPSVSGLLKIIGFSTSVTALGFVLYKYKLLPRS

passive avoidance test = system: passive avoidance test; set-up: method as in Mihara et al., 2007; settings: rats; ref Mihara et al., 2007; cited from earlier work
recombinant human MAO-A [3] = target: T2, recombinant human MAO-A; assay: Monoamine oxidase assay (Amplex Red), MAO-A; assay type: biochemical; settings: for inhibition at 10 µM: at 10,000 nM, read-out: % inhibition at indicated concentration, Human MAO-A; for IC50: n = 3, read-out: IC50 ± SEM, Human MAO-A
How it was run: (§1)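 Recombinant human MAO-A and MAO-B, expressed in baculovirus-infected insect cells, were assayed by Amplex Red fluorometric detection. Rat MAO-B inhibition used mitochondria-enriched fractions from male Sprague Dawley rat liver.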

recombinant human MAO-B [4] = target: T1, recombinant human MAO-B; assay: Monoamine oxidase assay (Amplex Red), MAO-B; assay type: biochemical; settings: for inhibition at 10 µM: at 10,000 nM (10 μM), read-out: % inhibition at indicated concentration, Human MAO-B; for IC50: n = 3, read-out: IC50 ± SEM, Human MAO-B
How it was run: as §1

[5] = system: haloperidol-induced catalepsy; set-up: method as in Mihara et al., 2007; settings: monkeys; ref Mihara et al., 2007; cited from earlier work
human A3 AR [6] = target: T3, human A3 AR (Homo sapiens, UniProt P0DMS8); settings: human (h); Figure 2; ref Chen et al., 2002; Stössel et al., 2013; Mihara et al., 2007; read-out: A3 (Ki); cited from earlier work
T3 construct: expressed in transfected cells; host or cells: CHO cells
T3 sequence (P0DMS8 1-318): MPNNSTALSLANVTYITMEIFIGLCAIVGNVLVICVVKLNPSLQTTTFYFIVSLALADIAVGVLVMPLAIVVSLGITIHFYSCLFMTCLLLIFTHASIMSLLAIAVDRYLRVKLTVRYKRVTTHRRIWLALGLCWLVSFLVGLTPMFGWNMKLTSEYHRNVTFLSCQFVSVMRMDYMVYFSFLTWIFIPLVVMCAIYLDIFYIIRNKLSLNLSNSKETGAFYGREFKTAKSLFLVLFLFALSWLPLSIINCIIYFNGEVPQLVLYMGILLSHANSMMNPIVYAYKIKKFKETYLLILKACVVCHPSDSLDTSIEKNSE

human A2B AR = target: T4, human A2B AR (Homo sapiens, UniProt P29275); assay: Radioligand binding assay at human A2B AR vs. [^3H]PSB-603
T4 construct: expressed in transfected cells; host or cells: CHO cells
T4 sequence (P29275 1-332): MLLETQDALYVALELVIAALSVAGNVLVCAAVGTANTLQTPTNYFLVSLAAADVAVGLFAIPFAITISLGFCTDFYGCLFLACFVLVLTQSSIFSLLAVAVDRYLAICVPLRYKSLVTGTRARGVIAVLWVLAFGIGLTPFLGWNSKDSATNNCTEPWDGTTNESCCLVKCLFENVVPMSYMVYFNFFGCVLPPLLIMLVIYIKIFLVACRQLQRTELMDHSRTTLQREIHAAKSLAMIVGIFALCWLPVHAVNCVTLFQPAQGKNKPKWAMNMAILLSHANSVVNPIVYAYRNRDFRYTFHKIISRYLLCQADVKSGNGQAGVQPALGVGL
How it was run: (§2)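 Using CHO membranes with one recombinant human AR subtype each (A1, A2A, A2B, A3), plus rat cortical (A1) and striatal (A2A) membranes, compounds are tested in radioligand binding to give receptor affinity and subtype selectivity.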

ARs = assay: Radioligand binding assays at adenosine receptors (statements on ARs in general)
Experimental: Membrane preparations and radioligand binding assays at rat A1 (rat brain cortex) and rat A2A ARs (rat brain striatum) were performed as previously described (Ozola et al., [2003]; Alnouri et al., [2015]). For assays at human A1, A2A, A2B, and A3 ARs, CHO cell membranes expressing one of the human AR subtypes were used as previously reported (Klotz et al., [1998]; Alnouri et al., [2015]; De Filippo et al., [2016]).
The synthesized tetrahydropyrazino[2,1-f ]purinediones 13–20 were evaluated in radioligand binding assays for their affinity to A1 ARs of rat brain cortical membrane and to A2A ARs of rat brain striatal membrane preparations. Selected compounds were further investigated for their affinity to human A1 and A2A ARs recombinantly expressed in Chinese hamster ovary (CHO) cells. All compounds were additionally investigated for their affinity to human A2B and A3 ARs recombinantly expressed in CHO cells to determine their AR subtype selectivity. […] It is well known that all xanthine derivatives lacking a ribose moiety, including tricyclic compounds, can only block ARs, but never act as AR agonists; therefore, additional functional studies were not required. […] Potent MAO-B inhibitors were additionally investigated for inhibition of human MAO-A to assess their selectivity. Results are presented in Tables 1–6, and data of standard ligands are included for comparison.

human A3 AR [7] = target: T3, human A3 AR; assay: Radioligand binding assay at human A3 AR vs. [^3H]PSB-11
How it was run: as §2

rat A2A AR = target: T5, rat A2A AR (Rattus norvegicus, UniProt P30543); assay: Radioligand binding assay at rat A2A AR (rat brain striatum) vs. [^3H]MSX-2; settings: rat (r)
T5 construct: A2A ARs of rat brain striatal membrane preparations; from tissue; host or cells: rat brain striatum membranes
T5 sequence (P30543 whole entry): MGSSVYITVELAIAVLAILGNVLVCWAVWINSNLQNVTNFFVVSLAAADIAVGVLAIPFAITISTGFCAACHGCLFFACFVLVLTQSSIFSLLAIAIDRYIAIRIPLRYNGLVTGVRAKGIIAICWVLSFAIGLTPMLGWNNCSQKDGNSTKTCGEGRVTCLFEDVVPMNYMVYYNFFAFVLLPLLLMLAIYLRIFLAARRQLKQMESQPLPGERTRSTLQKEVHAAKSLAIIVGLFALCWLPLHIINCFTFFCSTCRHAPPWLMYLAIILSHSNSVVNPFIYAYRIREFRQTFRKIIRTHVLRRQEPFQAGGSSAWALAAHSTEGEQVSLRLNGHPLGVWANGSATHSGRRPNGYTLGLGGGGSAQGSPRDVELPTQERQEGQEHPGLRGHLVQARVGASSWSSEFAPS
How it was run: as §2

rat A1 AR = target: T6, rat A1 AR (Rattus norvegicus, UniProt P25099); assay: Radioligand binding assay at rat A1 AR (rat brain cortex) vs. [^3H]CCPA; settings: rat (r)
T6 construct: A1 ARs of rat brain cortical membrane; from tissue; host or cells: rat brain cortex membranes
T6 sequence (P25099 1-326): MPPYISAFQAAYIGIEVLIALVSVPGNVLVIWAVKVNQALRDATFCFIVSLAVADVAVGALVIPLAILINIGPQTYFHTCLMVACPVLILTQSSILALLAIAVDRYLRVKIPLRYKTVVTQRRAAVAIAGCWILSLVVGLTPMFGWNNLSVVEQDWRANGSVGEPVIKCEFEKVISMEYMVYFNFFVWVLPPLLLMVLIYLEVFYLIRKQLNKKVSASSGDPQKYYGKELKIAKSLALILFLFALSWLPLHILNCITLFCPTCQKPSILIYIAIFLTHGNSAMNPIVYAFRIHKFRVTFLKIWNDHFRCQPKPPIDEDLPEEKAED
How it was run: as §2

Row | SMILES | IC50 (recombinant human MAO-B [1]) [µM] | IC50 (recombinant human MAO-A [2]) [µM] | result in the passive avoidance test (passive avoidance test) | inhibition at 10 µM (recombinant human MAO-A [3]) [%] | IC50 (recombinant human MAO-A [3]) [µM] | inhibition at 10 µM (recombinant human MAO-B [4]) [%] | IC50 (recombinant human MAO-B [4]) [µM] | effect on haloperidol-induced catalepsy [5] | Ki (human A3 AR [6]) [µM] | Ki (human A2B AR; CHO cell membranes, n = 2 (n = 3 where marked a), read-out: Ki ± SEM, A2B vs. [^3H]PSB-603) [µM] | inhibition at 1 µM (human A2B AR; at 1,000 nM, read-out: % inhibition of radioligand binding at indicated concentration, A2B vs. [^3H]PSB-603) [%] | affinity for ARs (in words) (ARs) | Ki (human A3 AR [7]; CHO cell membranes, n = 2 (n = 3 where marked a), read-out: Ki ± SEM, A3 vs. [^3H]PSB-11) [µM] | inhibition at 10 µM (human A3 AR [7]; at 10,000 nM, read-out: % inhibition of radioligand binding at indicated concentration, A3 vs. [^3H]PSB-11) [%] | % inhibition of radioligand binding at indicated concentration, A2A vs. [^3H]MSX-2 (rat A2A AR; at 1,000 nM) [%] | Ki (rat A2A AR; rat brain striatum, n = 3, read-out: Ki ± SEM, A2A vs. [^3H]MSX-2) [µM] | Ki (rat A1 AR; rat brain cortex, n = 3) [µM] | inhibition at 1.5 µM (rat A1 AR; read-out: % inhibition of radioligand binding at indicated concentration, A1 vs. [^3H]CCPA, at 1,500 nM) [%]
1 | CCn1c(=O)c2c(nc(/C=C/c3ccc(OC)c(OC)c3)n2C)n(CC)c1=O [Istradefylline, istradefylline, reference compound] | > 10 | > 10 | inactive | 18 | > 10 | 20 | > 10 |  |  |  |  |  |  |  |  |  |  | 
2 | CC(C)n1cc(-c2ncc(N)nc2-c2ccc(F)cc2)ccc1=O [ASP-5854, 5-[5-amino-3-(4-fluorophenyl)pyrazin-2-yl]-1-isopropylpyridine-2(1H)-one] |  |  | positive results |  |  |  |  | reversed | > 0.557 |  |  |  |  |  |  |  |  | 
3 | CCn1c(=O)c2c(nc3n2CCN(Cc2cc(C(F)(F)F)cc(C(F)(F)F)c2)C3)n(C)c1=O [Compound 14q, 8-(3,5-bis(trifluoromethyl)benzyl)-3-ethyl-1-methyl-6,7,8,9-tetrahydropyrazino[2,1-f]purine-2,4(1H,3H)-dione] |  |  |  | 8 | > 10 | 56 | < 10 |  |  | > 1 | 2 | nearly inactive | > 10 | 32 | 39 | > 1 | > 1.5 | 31
